Earlier results, collected in publication PMC7878667, “The Kinase Specificity of Protein Kinase Inhibitor Peptide” (Frontiers in Pharmacology, 2021).

Legend:
[1] = tested on: PKA catalytic subunit; conditions: ref Murray, 2008
Excerpt: (§1) Despite the additional targets of PKI identified in our study, PKI seems more specific than the other commonly used PKA inhibitors, H89 and KT 5720 ([Murray, 2008]). This may be due to their different mechanisms of action. […] The off-target effects of these reagents have partial overlap ([Murray, 2008]).

[2] = tested on: PKBα; conditions: ref Murray, 2008
Excerpt: as §1

[3] = tested on: ROCK2; conditions: ref Murray, 2008
Excerpt: as §1

[4] = tested on: PDK1; conditions: ref Murray, 2008
Excerpt: as §1

[5] = tested on: PKC; conditions: ref Day et al., 1989; Smith et al., 1990
Excerpt: In principle, this could be due to PKI interfering with 1) the protease reaction, 2) the fluorescence detection, or 3) the FRET response. […] Second, the forms of PKC used are different: we used purified human recombinant PKC isoforms expressed in insect ce ...

O=S(=O)(NCCNC/C=C/c1ccc(Br)cc1)c1cccc2cnccc12 [H89]
mechanism of PKA inhibition [1]: competitively inhibits ATP binding on the PKA catalytic subunit
effect on PKBα [2]: inhibited
effect on ROCK2 [3]: inhibits ROCK2 potently

CCCCCCOC(=O)[C@]1(O)C[C@@H]2O[C@@]1(C)n1c3ccccc3c3c4c(c5c6ccccc6n2c5c31)C(=O)NC4 [KT 5720]
effect on PDK1 activity [4]: inhibited
mechanism of PKA inhibition [1]: competitively inhibits ATP binding on the PKA catalytic subunit
effect on PKBα [2]: inhibited

IAAGRTGRRQAIHDILVAA [PKI-tide]
influence on PKC [5]: did not find significant influence
